We go through seven compounds from patent US12509421B2, “Preparation and application of deuterated 4-phenyl-4-piperidinols” (priority 2022, dated 2025).

The target of one data set is T1, κOR (Homo sapiens, UniProt P41145).
T1 construct: expressed in transfected cells; host or cells: CHO cells
In words: Opioid receptor competitive binding test, κOR. Particulars: compound at 10 μM; [3H]-labeled ligand; CHO cell membranes; ± SD of three measurements. Here is the method: (§1) CHO cells expressing p opioid receptor, δ opioid receptor and K opioid receptor are cultured in a 10 cm^2 Petri dish (F-12 medium+10% newborn bovine serum) for several days, and the culture solution is sucked after the cells grew to the bottom of the dish. 3 ml PBS/EDTA solution (0.1M NaCl, 0.01M NaH2PO4, 0.04% EDTA) is added for digestion for 3-5 minutes. The cells are blown with a straw to get fall off completely, collected in a 40 ml centrifuge tube, centrifuged at 5000 rpm for 5 minutes, and removed with the supernatant. The centrifuge tube is added with ice-cold homogenate (50 mM HEPES PH 7.4, 3 mM MgCl2, 1 mM EGTA). The solution and precipitate are transferred to homogenizer for homogenization; Then the homogenate is transferred into a centrifuge tube, centrifuged at 18000 rpm for 15 minutes, and centrifuged twice; the obtained precipitate is added with an appropriate amount of buffer solution of 50 mM Tris-HCl and pH 7.4, homogenized and sub-packaged in centrifuge tubes. The product is stored in a refrigerator at −70° C. for later use.
(§2) 20-30 μg expressed membrane receptor protein and [3H]-labeled ligand (1-2 nM) are added to the total binding tube, added with 1 μM of corresponding ligand to the corresponding nonspecific binding tube. Various screened opioid ligand drugs (see the drug compounds in Table 1 below) are added to the sample tube with 100 μL final volume. The sample is incubated at 30° C. for 30 minutes, and the reaction is terminated in ice water. The glass fiber filter paper gF/C (whatman) is used for negative pressure filtration on Millipore sample collector. The sample is eluted with 4 ml 50 mm tris-HCl (pH 7.4) for three times, dried with the filter paper, put in 0.5 ml Eppendorf tube and added with 0.5 ml lipophilic scintillation liquid. The radioactive intensity is measured with PERKIN ELMER PRI-CARB 2910 liquid scintillation counter with calculation of the inhibition rate. The experiment is repeated for more than three times, with three compound tubes in each group. Inhibition rate(or binding rate)=(total binding rate dpm−sample tube dpm)/(total binding tube dpm-nonspecific binding tube dpm)×100%
(§3) IC50 is calculated with Prism 5.0 software. The Ki value is calculated according to the following formula: Ki=IC50/(1^+[L]/Kd), wherein [L] is the concentration of the added labeled ligand, and Kd is the equilibrium dissociation parameter of the labeled ligand.

The nature of data set [1]: Metabolic stability in liver microsomes, rat. To be noted: for half-life at 2 μM / microsomal CLint at 2 μM: rat, microsomes, pH 7.4. As for the experimental part: (§4) The solution B is slowly dropped into solution A, and the pH is adjusted to 7.40±0.05.
(§5) • Control drug: 4 μL Verapamil solution (10 mM) is added with 96 μL DMSO and diluted to 400 μM; • Compound to be tested: 4 μL compound to be tested (10 mM) is added with 96 μL normal saline and diluted to 400 μM.
(§6) The microsomes are stored in the refrigerator at −80° C., thawed at room temperature after being taken out, and mixed gently.
(§7) […] PBS (100 mm, pH=7.4) solution is added to the negative sample. The solution is put into water bath at 37° C. and pre-incubated for 10 minutes; • B) After incubation, 2 μL reference drug or compound to be tested (400 μM) are added into each well to start the reaction.

Data set [2] is described as follows: Metabolic stability in liver microsomes, human. To be noted: for half-life at 2 μM / microsomal CLint at 2 μM: human, microsomes, pH 7.4. As for the experimental part:
as §4, §5, §6, §7
(Liver microsomes are vesicles of endoplasmic reticulum, rich in cytochrome P450 enzymes.)

The next data set concerns the target T2, δOR (Homo sapiens, UniProt P41143).
T2 construct: expressed in transfected cells; host or cells: CHO cells
In words: Opioid receptor competitive binding test, δOR. To be noted: compound at 10 μM; [3H]-labeled ligand; CHO cell membranes; ± SD of three measurements. As for the experimental part: as §1, §2, §3

The nature of data set [3]: Metabolic stability in liver microsomes, mouse. Particulars: for half-life at 2 μM / microsomal CLint at 2 μM: mouse, microsomes, pH 7.4. As for the experimental part: as §4, §5, §6, §7
The subject of a further data set is Female Kunming mice. The data set can be described thus: Hot plate analgesia test in mice. The class given is in vivo. To be noted: intraperitoneal, 55° C. hot plate; for ED50: Mus musculus, ip. Here is the method: Female Kunming mice weighing about 20 g are placed on a hot plate instrument preheated to 55° C., and the latency of licking hind feet or lifting hind feet is used as the pain threshold index. Animals are screened before the experiment, and animals with latency less than 5 s or more than 30 s are excluded. To prevent foot burns, the longest observation time is set to 60s. The basic pain threshold is the average of two measurements, and the interval between the two measurements is 5 minutes. The pain threshold of mice in each group is determined at 15 minutes, 30 minutes, 60 minutes and 120 minutes after intraperitoneal administration. The effective percentage of analgesia (% MPE) is calculated according to the following formula
[formula] According to the effective percentage of analgesia, the ED50 value is calculated by graphpad prism 5.0 software.

The next data set concerns the target CYP 2C9 (Homo sapiens, UniProt P11712). In words: Inhibition of cytochrome P450 enzyme in human liver microsomes, CYP 2C9.
Another data set addresses CYP 2C19 (Homo sapiens, UniProt P33261). The data set can be described thus: Inhibition of cytochrome P450 enzyme in human liver microsomes, CYP 2C19.
A further data set deals with CYP 2D6 (Homo sapiens, UniProt P10635). The data set can be described thus: Inhibition of cytochrome P450 enzyme in human liver microsomes, CYP 2D6.
Where [4] appears, read: Rat liver microsomes 0.5 mg/mL, NADPH 1 mM, compound 2 μM.
Setting [5] is: Human liver microsomes 0.5 mg/mL, NADPH 1 mM, compound 2 μM.
Where [6] appears, read: Mouse liver microsomes 0.5 mg/mL, NADPH 1 mM, compound 2 μM.

Structures can show the parent of a compound that is named as a salt.

In the case of `COc1cccc([C@]2(O)CCN(S(=O)(=O)Cc3ccccc3)C[C@H]2CN(C)C)c1.Cl` [Example 20 of CN201911076305.X, reference compound], on κOR, the κOR binding rate turned out to be 15.25 ± 1.56%. Also, the figures for the CLint in data set [1] (setting [4]), in data set [2] (setting [5]) and in [3] (setting [6]) were 747.68 μL/min/mg protein, 950.42 μL/min/mg protein and 1101.92 μL/min/mg protein, respectively. Also, the t1/2 was found to be 1.85 min in [1] (setting [4]), 1.46 min in data set [2] (setting [5]) and 1.26 min in [3] (setting [6]). This compound returned a δOR binding rate at δOR of 10.5 ± 3.7%. In addition, the “ED50, hot plate” value in the data set with Female Kunming mice was 0.49 mg/kg.
`[2H]C([2H])([2H])N(C)C[C@@H]1CN(S(=O)(=O)Cc2ccccc2)CC[C@@]1(O)c1cccc(OC)c1` [II-1hydrochloride]: the κOR binding rate at κOR worked out at 16.37 ± 1.6%. The values for the IC50 against CYP 2C9, against CYP 2C19 and against CYP 2D6 were greater than 50 µM, greater than 50 µM and 13 µM, respectively. Also, the half-life at 2 μM turned out to be 5.63 min in data set [1], 5.22 min in [2] and 5.19 min in data set [3]. The microsomal CLint at 2 μM is 701 µL/min/mg in [1], 663 µL/min/mg in data set [2] and 659 µL/min/mg in [3]. At δOR, this compound registered a δOR binding rate of 11.6 ± 2.1%. The compound further yielded an ED50 in the data set on Female Kunming mice of 0.52 mg/kg.
As to `[2H]C([2H])([2H])N(C[C@@H]1CN(S(=O)(=O)Cc2ccccc2)CC[C@@]1(O)c1cccc(OC)c1)C([2H])([2H])[2H]` [II-3hydrochloride], the κOR binding rate at κOR amounted to 15.3 ± 2.0%. Besides, the figures for the IC50 against CYP 2C9, on CYP 2C19 and on CYP 2D6 were greater than 50 µM, greater than 50 µM and 13.8 µM, respectively. Also, the half-life at 2 μM in data set [1] is 5.72 min; in data set [2], 5.46 min; in data set [3], 5.24 min. The microsomal CLint at 2 μM in data set [1] was found to be 697 µL/min/mg; in [2] it was 685 µL/min/mg; in data set [3] it was 660 µL/min/mg. At δOR, this compound registered a δOR binding rate of 12.3 ± 2.0%. Besides, the ED50 in the data set with Female Kunming mice stood at 0.5 mg/kg.
In the case of `[2H]C([2H])([2H])Oc1cccc([C@]2(O)CCN(S(=O)(=O)Cc3ccccc3)C[C@H]2CN(C([2H])([2H])[2H])C([2H])([2H])[2H])c1` [II-5hydrochloride], on κOR, the κOR binding rate is reported as 15.8 ± 4.6%. The IC50 against CYP 2C9 is greater than 50 µM; against CYP 2C19, greater than 50 µM; against CYP 2D6, 15.3 µM. In addition, the figures for the half-life at 2 μM in [1], in data set [2] and in [3] were 6.59 min, 6.25 min and 6.05 min, respectively. The microsomal CLint at 2 μM in data set [1] came to 763 µL/min/mg; in data set [2], 704 µL/min/mg; in data set [3] it was 706 µL/min/mg. Further, the δOR binding rate on δOR came out at 12.9 ± 1.8%. This compound returned a 50% effective dose (ED50) in the data set with Female Kunming mice of 0.58 mg/kg.
In turn, `[2H]C([2H])([2H])N(C)C[C@@H]1CN(C(=O)Cc2cc(F)c(F)cc2F)CC[C@@]1(O)c1cccc(OC)c1` [II-7hydrochloride, 1-((3R,4S)-4-hydroxy-4-(3-methoxyphenyl)-3-(((methyl-d3)amino)methyl)-1-piperidinyl)-2(2,4,5-trifluorophenyl)ethyl-1-one] had a κOR binding rate on κOR of 16.6 ± 2.9%. Further, the IC50 against CYP 2C9 is greater than 50 µM; at CYP 2C19, greater than 50 µM; at CYP 2D6, 14.7 µM. Further, the half-life at 2 μM in [1] was found to be 5.68 min; in [2], 5.42 min; in [3], 5.15 min. Further, the microsomal CLint at 2 μM in data set [1] is 689 µL/min/mg; in data set [2], 681 µL/min/mg; in [3] it was 661 µL/min/mg. The same compound came in with a δOR binding rate at δOR of 10.6 ± 2.0%. In addition, the ED50 with Female Kunming mice came out at 0.51 mg/kg.
For `[2H]C([2H])([2H])N(C[C@@H]1CN(C(=O)Cc2cc(F)c(F)cc2F)CC[C@@]1(O)c1cccc(OC)c1)C([2H])([2H])[2H]` [II-9hydrochloride], the κOR binding rate at κOR turned out to be 17.2 ± 3.5%. Also, the IC50 against CYP 2C9 was greater than 50 µM; against CYP 2C19, greater than 50 µM; at CYP 2D6, 13.7 µM. In addition, the results for the half-life at 2 μM in data set [1], in data set [2] and in data set [3] were 5.55 min, 5.32 min and 5.03 min, respectively. For the same compound, the values for the microsomal CLint at 2 μM in [1], in data set [2] and in data set [3] were 681 µL/min/mg, 673 µL/min/mg and 612 µL/min/mg, respectively. Also, the δOR binding rate on δOR is 12.8 ± 0.8%. For the same compound, the ED50 in the data set on Female Kunming mice came to 0.52 mg/kg.
The compound `[2H]C([2H])([2H])Oc1cccc([C@]2(O)CCN(C(=O)Cc3cc(F)c(F)cc3F)C[C@H]2CN(C([2H])([2H])[2H])C([2H])([2H])[2H])c1` [II-11hydrochloride] returned a κOR binding rate at κOR of 16.4 ± 2.3%. In addition, the IC50 against CYP 2C9 is greater than 50 µM; against CYP 2C19, greater than 50 µM; on CYP 2D6 it was 12.8 µM. In addition, the results for the half-life at 2 μM in data set [1], in [2] and in [3] were 6.46 min, 6.18 min and 6.01 min, respectively. The figures for the microsomal CLint at 2 μM in [1], in data set [2] and in data set [3] were 747 µL/min/mg, 711 µL/min/mg and 700 µL/min/mg, respectively. The compound also yielded a δOR binding rate on δOR of 10.4 ± 1.1%. For the same compound, the 50% effect level in the data set on Female Kunming mice (ED50) was put at a dose of 0.64 mg/kg.

What is called IC50 is the concentration that gives 50% inhibition. The low end stands for greater potency in that assay, the high end for weaker potency in that assay. By half-life is commonly meant the time needed for the level to fall by half in the phase considered. The microsomal CLint is the rate of metabolic loss divided by the concentration. Broadly, the ED50 is the midpoint of the dose-response relation. The low end stands for greater potency, the high end for weaker potency.
